Test results taken from publication PMC3378808 (Biochimica et Biophysica Acta, 2012).

T1: TMD of integrin αIIb (Homo sapiens, UniProt P08514)
T1 sequence (P08514 994-1019 limits assumed): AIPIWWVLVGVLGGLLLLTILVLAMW


Assays:
TMD of integrin αIIb = target: T1, TMD of integrin αIIb; assay: ToxR reporter assay of integrin αIIb TMD oligomerization; type: cell-based; conditions: Figure 3c
[1] = tested on: B lymphoblastoid cell line 721; conditions: 100 μM, B 721 cells, 48 h, WST-1
[2] = tested on: TMD of diacylglycerol kinase (DAGK); type: cell-based; conditions: ToxR assay, Figure 3c
[3] = target: coumarin labeled TMD-5 peptide (LMP-1) (Epstein-Barr virus, UniProt P03230); assay: Coumarin fluorescence dequenching assay; type: binding
[4] = target: 12 representative kinases (AKT1, CAMK1, DDR2, GSK-3α, MAPK1, MET, PAK1, PDGFRB, PIM1, PKC-γ, PLK4, SRC); assay: Kinase profiling; type: biochemical; conditions: 50 μM compound
TMD-5 peptide = TMD-5 peptide (Epstein-Barr virus, UniProt P03230); assay: NMR titration; type: binding; conditions: 500 MHz, POPC/DHPC bicelles, 37 °C
CAMK1 = CAMK1 (Homo sapiens, UniProt Q14012); assay: Kinase profiling; type: biochemical; conditions: 50 μM compound
PDGFRB = PDGFRB (Homo sapiens, UniProt P09619); assay: Kinase profiling; type: biochemical; conditions: 50 μM compound
[5] = tested on: NO production (NF-κB downstream signaling); assay: Nitric oxide; type: cell-based, human; conditions: 100 μM, EBV positive B 721 cells, 48 h
split luciferase = split luciferase (Photinus pyralis, UniProt P08659); assay: Split luciferase false-positive control; type: biochemical; conditions: false positive evaluation
TMD-5 trimer = TMD-5 trimer (Epstein-Barr virus, UniProt P03230); assay: Bis-Tris SDS-PAGE of TMD-5 after NMR titration; type: binding; conditions: compound to TMD-5 ratio 4:1
LMP-1 TMD-5 = LMP-1 TMD-5 (Epstein-Barr virus, UniProt P03230); type: cell-based
[6] = tested on: full-length LMP-1-mediated NF-κB activity; assay: NF-κB luciferase reporter assay in EBV positive B 721 cells; type: cell-based; conditions: Homo sapiens, B721, 48 h, read-out: IC50 of NF-κB activation
Bis-Tris SDS-PAGE = target: the molecule itself; assay: Bis-Tris SDS-PAGE

Sequence of PDGFRB (P09619 33-1106, species assumed): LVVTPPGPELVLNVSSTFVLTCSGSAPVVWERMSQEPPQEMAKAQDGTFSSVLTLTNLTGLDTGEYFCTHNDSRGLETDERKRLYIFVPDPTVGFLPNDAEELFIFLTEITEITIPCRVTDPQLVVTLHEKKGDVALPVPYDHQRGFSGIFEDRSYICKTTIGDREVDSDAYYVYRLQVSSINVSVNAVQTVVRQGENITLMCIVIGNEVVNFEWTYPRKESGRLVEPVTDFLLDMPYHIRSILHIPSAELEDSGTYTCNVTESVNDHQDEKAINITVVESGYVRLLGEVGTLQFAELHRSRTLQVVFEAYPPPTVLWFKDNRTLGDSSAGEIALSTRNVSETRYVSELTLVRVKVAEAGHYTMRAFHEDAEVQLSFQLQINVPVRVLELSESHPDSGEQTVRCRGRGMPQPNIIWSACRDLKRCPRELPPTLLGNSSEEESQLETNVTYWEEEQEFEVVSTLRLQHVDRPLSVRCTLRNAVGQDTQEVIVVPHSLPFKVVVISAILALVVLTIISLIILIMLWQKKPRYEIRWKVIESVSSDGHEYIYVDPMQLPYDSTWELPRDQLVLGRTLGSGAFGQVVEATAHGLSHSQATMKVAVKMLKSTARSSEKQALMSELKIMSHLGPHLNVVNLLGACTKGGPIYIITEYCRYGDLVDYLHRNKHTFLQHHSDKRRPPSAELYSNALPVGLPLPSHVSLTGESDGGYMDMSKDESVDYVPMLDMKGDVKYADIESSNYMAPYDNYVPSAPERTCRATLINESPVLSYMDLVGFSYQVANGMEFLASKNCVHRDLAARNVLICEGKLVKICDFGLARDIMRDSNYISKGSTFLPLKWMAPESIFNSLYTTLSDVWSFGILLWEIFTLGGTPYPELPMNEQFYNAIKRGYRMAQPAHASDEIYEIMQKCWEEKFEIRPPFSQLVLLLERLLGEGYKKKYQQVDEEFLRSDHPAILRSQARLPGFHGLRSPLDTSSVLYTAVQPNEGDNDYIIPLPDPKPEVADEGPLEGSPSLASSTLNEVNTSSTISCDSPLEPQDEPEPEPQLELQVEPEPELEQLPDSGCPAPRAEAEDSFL
Sequence of CAMK1 (Q14012 whole entry, species assumed): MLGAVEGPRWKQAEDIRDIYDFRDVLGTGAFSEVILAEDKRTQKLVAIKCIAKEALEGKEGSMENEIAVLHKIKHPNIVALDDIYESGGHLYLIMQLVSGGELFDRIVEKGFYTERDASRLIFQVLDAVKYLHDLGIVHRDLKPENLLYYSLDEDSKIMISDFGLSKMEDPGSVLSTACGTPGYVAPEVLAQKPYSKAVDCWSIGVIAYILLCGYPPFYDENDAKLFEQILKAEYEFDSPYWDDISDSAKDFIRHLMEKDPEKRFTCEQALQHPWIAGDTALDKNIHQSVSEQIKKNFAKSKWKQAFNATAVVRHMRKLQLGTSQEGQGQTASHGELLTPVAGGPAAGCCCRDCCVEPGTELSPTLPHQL
Sequence of split luciferase (P08659 2-416 limits assumed): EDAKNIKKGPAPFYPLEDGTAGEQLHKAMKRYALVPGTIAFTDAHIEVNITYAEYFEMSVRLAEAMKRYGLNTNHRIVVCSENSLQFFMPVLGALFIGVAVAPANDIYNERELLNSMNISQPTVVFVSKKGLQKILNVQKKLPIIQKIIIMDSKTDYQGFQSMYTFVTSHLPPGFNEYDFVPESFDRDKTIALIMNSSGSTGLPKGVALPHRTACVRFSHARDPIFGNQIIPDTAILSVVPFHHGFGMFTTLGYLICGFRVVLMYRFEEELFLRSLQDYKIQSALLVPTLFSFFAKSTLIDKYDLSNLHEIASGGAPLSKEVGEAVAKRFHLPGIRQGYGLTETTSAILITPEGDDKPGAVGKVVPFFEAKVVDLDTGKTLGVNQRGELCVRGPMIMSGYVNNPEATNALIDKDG

| Molecule | inhibition of integrin αIIb TMD oligomerization (TMD of integrin αIIb) | cytotoxicity / growth inhibition [1] | inhibition of DAGK TMD oligomerization [2] | coumarin labeled TMD-5 fluorescence increase without detergent ([3]; in the absence of C14 betaine detergent) | kinase activity retained (ten out of twelve kinases) [4] | chemical shift changes of TMD-5 on titration (TMD-5 peptide) | inhibition of CAMK1 (CAMK1) | inhibition of PDGFRB (PDGFRB) | effect on NO over-production [5] | inhibition of luciferase control (split luciferase) | disruption of TMD-5 trimer to monomer on SDS-PAGE (TMD-5 trimer) | IC50 (LMP-1 TMD-5; read-out: IC50 to disrupt TMD-5 oligomerization in whole cells, ToxR assay, dose-dependent titration) | disruption of TMD-5 association (coumarin fluorescence dequenching), in words ([3]; 100 nM coumarin-labeled TMD-5, 150 μM C14 betaine, pH 7.4) | IC50 [6] | inhibition of TMD-5 oligomerization (ToxR assay), in words (LMP-1 TMD-5; Figure 3e/3f) | stoichiometry N (Bis-Tris SDS-PAGE) |
| --- | --- | --- | --- | --- | --- | --- | --- | --- | --- | --- | --- | --- | --- | --- | --- | --- |
| N=C(N)c1ccc(C=Cc2ccc(C(=N)N)cc2O)cc1.O=S(=O)(O)CCO.O=S(=O)(O)CCO [Compound 1] | No apparent oligomerization inhibition | No apparent growth inhibition | did not inhibit DAGK TMD oligomerization | failed to cause coumarin labeled TMD-5 fluorescence increase | > 95% | induced chemical shift changes at a number of sites including the deeply buried Asp 150 | approximately 20% | approximately 20% | suppress NO over-production | did not inhibit luciferase control | disrupts the TMD-5 trimer | 90 ± 10.5 µM | – | – | – | – |
| C(=Cc1ccc(-c2nc(-c3ccccc3)nc(-c3ccccc3)n2)cc1)c1ccc(-c2nc(-c3ccccc3)nc(-c3ccccc3)n2)cc1 [Compound 6, 2,2'-(1,2-ethenediyldi-4,1-phenylene)bis(4,6-diphenyl-1,3,5-triazine), reference compound] | – | – | – | – | – | – | – | – | no significant inhibition activity | – | – | – | did not inhibit TMD-5 oligomerization | 180 ± 27.5 µM | did not inhibit TMD-5 oligomerization | – |
| GGPGWQLLAFFLAFFLDLILLIIALYLGPGG [TMD-5 peptide (GGPG-WQLLAFFLAFFLDLILLIIALYL-GPGG) derived from LMP-1] | – | – | – | – | – | – | – | – | – | – | – | – | – | – | – | 3 |
